Laboratory results reported in ChEMBL document CHEMBL3259791, “Discovery of (E)-3-((styrylsulfonyl)methyl)pyridine and (E)-2-((styrylsulfonyl)methyl)pyridine derivatives as anticancer agents: synthesis, structure-activity relationships, and biological activities” (J Med Chem, 2014).

Legend:
Format in all cases: functional
A2780 [1] = test: Induction of apoptosis in human A2780 cells assessed as necrotic cells at 1 uM after 48 hrs by annexin V/PI double staining (reference value: 0.53%)
A2780 [2] = test: Induction of apoptosis in human A2780 cells assessed as early-stage apoptotic cells at 1 uM after 48 hrs by annexin V/PI double staining (reference value: 7.13%)
WI-38 [3] = test: Induction of apoptosis in human WI38 cells assessed as late-stage apoptotic cells at 0.06 uM after 48 hrs by annexin V/PI double staining (reference value: 16.26%)
A2780 [4] = test: Induction of apoptosis in human A2780 cells assessed as early-stage apoptotic cells at 0.06 uM after 48 hrs by annexin V/PI double staining (reference value: 7.13%)
WI-38 [5] = test: Induction of apoptosis in human WI38 cells assessed as early-stage apoptotic cells at 1 uM after 48 hrs by annexin V/PI double staining (reference value: 2.16%)
A2780 [6] = test: Cell cycle arrest in human A2780 cells assessed as accumulation at G1 phase at 0.06 uM after 24 hrs by flow cytometric analysis (reference value: 54.89%)
A2780 [7] = test: Cell cycle arrest in human A2780 cells assessed as accumulation at S phase at […] after 24 hrs by flow cytometric analysis (reference value: 22.72%)
MCF7 = test: Antiproliferative activity against ER positive human MCF7 cells assessed as cell growth inhibition after 72 hrs by MTT assay; conditions: MCF7, 72 h
WI-38 [8] = test: Cell cycle arrest in human WI38 cells assessed as accumulation at G1 phase at 1 uM after 24 hrs by flow cytometric analysis (reference value: 55.89%)
A2780 [9] = test: Induction of apoptosis in human A2780 cells assessed as early-stage apoptotic cells at […] after 48 hrs by annexin V/PI double staining (reference value: 7.13%)
A2780 [10] = test: Antiproliferative activity against human A2780 cells assessed as cell growth inhibition after 72 hrs by MTT assay; conditions: A2780, 72 h
WI-38 [11] = test: Cell cycle arrest in human WI38 cells assessed as accumulation at S phase at 0.06 uM after 24 hrs by flow cytometric analysis (reference value: 16.25%)
A2780 [12] = test: Cell cycle arrest in human A2780 cells assessed as accumulation at G1 phase at […] after 24 hrs by flow cytometric analysis (reference value: 54.89%)
LNCaP = test: Antiproliferative activity against AR positive human LNCAP cells assessed as cell growth inhibition after 72 hrs by MTT assay
A2780 [13] = test: Cell cycle arrest in human A2780 cells assessed as accumulation at subG1 phase at […] after 24 hrs by flow cytometric analysis (reference value: 0.62%)
A2780 [14] = test: Induction of apoptosis in human A2780 cells assessed as late-stage apoptotic cells at 1 uM after 48 hrs by annexin V/PI double staining (reference value: 10.20%)
A2780 [15] = test: Induction of apoptosis in human A2780 cells assessed as viable cells at 0.06 uM after 48 hrs by annexin V/PI double staining (reference value: 82.12%); conditions: A2780, 48 h, read-out: Activity
A2780 [16] = test: Induction of apoptosis in human A2780 cells assessed as necrotic cells at 0.06 uM after 48 hrs by annexin V/PI double staining (reference value: 0.53%)
WI-38 [17] = test: Cell cycle arrest in human WI38 cells assessed as accumulation at subG1 phase at […] after 24 hrs by flow cytometric analysis (reference value: 10.53%)
WI-38 [18] = test: Cell cycle arrest in human WI38 cells assessed as accumulation at S phase at […] after 24 hrs by flow cytometric analysis (reference value: 16.25%)

COc1cc(OC)c(/C=C/S(=O)(=O)Cc2ccc(OC)c(NCC(=O)O)c2)c(OC)c1 [RIGOSERTIB] showed an Activity (A2780 [1]) of 1.19%, an Activity (A2780 [2]) of 50.22% and an Activity (WI-38 [3]) of 11.54%. It also gave an Activity (A2780 [4]) of 3.82%, an Activity (WI-38 [5]) of 8.88% and an Activity (A2780 [6]) of 53.41%. It also gave an Activity (A2780 [7]) of 24.81%, a GI50 (MCF7) of 50 nM and an Activity (WI-38 [8]) of 53.8%. It also gave an Activity (A2780 [9]) of 38.11%, a GI50 (A2780 [10]) of 62 nM and an Activity (WI-38 [11]) of 11.86%. The Activity (A2780 [12]) was 37.71%, the GI50 (LNCaP) was 25 nM and the Activity (A2780 [13]) was 5.98%. For the same compound, the Activity (A2780 [14]) was 21.83%, the viability at 0.06 µM (A2780 [15]) was 89.5% and the Activity (A2780 [16]) was 0.34%. It also gave an Activity (WI-38 [17]) of 9.46% and an Activity (WI-38 [18]) of 9.32%.
